For 29 molecules, melting point results are on record in patent publication US6423727B1, “Certain thiol inhibitors of endothelin-converting enzyme” (Novartis AG, priority 1998, dated 2002).

Where a name gives a salt, the structure may show the parent alone.

A word on the melting point: it is the temperature of the solid-liquid transition. `O=C(O)[C@H](Cc1ccc(-c2ccccc2)cc1)NC(=O)C1(NC(=O)[C@@H](S)Cc2ccc(-c3ccccc3)cc2)CCCC1` registered a melting point of 187 to 189 °C. In the case of `CC[C@@H](C)[C@H](S)C(=O)NC1(C(=O)NC(Cc2ccc(-c3cncnc3)cc2)C(=O)O)CCCC1` (stereo in doubt) (as salt: hydrochloride) [2-{[1-(2-Mercapto-3-methyl-pentanoylamino)-cyclopentanecarbonyl]-amino}-3-(4-pyrimidin-5-yl-phenyl)-propionic acid hydrochloride], the melting point was 170 to 184 °C. `COc1cccc(-c2ccc(CC(NC(=O)C3(NC(=O)[C@@H](S)C(C)C)CCCC3)C(=O)O)cc2)c1` (stereo in doubt) [2-{[1-(2-Mercapto-3-methyl-butanoylamino)-cyclopentanecarbonyl]-amino}-3-(3′-methoxy-biphenyl-4-yl)-propionic acid] returned a melting point of 159 to 160 °C. Molecule `COc1ccc(-c2ccc(C[C@H](NC(=O)C3(NC(=O)[C@@H](S)C(C)C)CCCC3)C(=O)O)cc2)cc1` (stereo in doubt) [2-{[1-(2-Mercapto-3-methyl-butanoylamino)-cyclopentanecarbonyl]-amino}-3-(4′-methoxy-biphenyl-4-yl)-propionic acid] displayed a melting point of 179 to 181 °C. `CC(C)[C@H](S)C(=O)NC1(C(=O)N[C@@H](Cc2ccc3c(c2)CCCC3)C(=O)O)CCCC1` (stereo in doubt) [2-{[1-(2-Mercapto-3-methyl-butanoylamino)-cyclopentanecarbonyl]-amino}-3-(5,6,7,8-tetrahydro-naphthalen-2-yl)-propionic acid]: the melting point was 190 to 192 °C. In turn, `CC(C)[C@H](S)C(=O)NC1(C(=O)N[C@@H](Cc2ccc(-c3cccs3)cc2)C(=O)O)CCCC1` (stereo in doubt) [2-{[1-(2-Mercapto-3-methyl-butanoylamino)-cyclopentanecarbonyl]-amino}-3-[4-(thiophen-2-yl)-phenyl]-propionic acid] registered a melting point of 179 to 181 °C. `CC[C@H](C)[C@H](S)C(=O)NC1(C(=O)NC(Cc2ccc(-c3cncnc3)cc2)C(=O)O)CCCC1` (stereo in doubt) [2-{[1-(2-Mercapto-3-methyl-pentanoylamino)-cyclopentanecarbonyl]-amino}-3-(4-pyrimidin-5-yl-phenyl)-propionic acid] registered a melting point of 206 to 208 °C. To `CC[C@H](C)C(S)C(=O)NC1(C(=O)N[C@@H](Cc2ccc(-c3ccsc3)cc2)C(=O)O)CCCC1` (stereo in doubt) [2-{[1-(2-Mercapto-3-methyl-pentanoylamino)-cyclopentanecarbonyl]-amino}-3-[4-(thiophen-3-yl)-phenyl]-propionic acid] belongs 99 to 101 °C; to `COc1cc(C[C@H](NC(=O)C2(NC(=O)[C@@H](S)C(C)C)CCCC2)C(=O)O)ccc1-c1ccccc1` (stereo in doubt) [2-{[1-(2-Mercapto-3-methylbutanoylamino)-cyclopentanecarbonyl]-amino}-3-(2-methoxybiphenyl-4-yl)-propionic acid], 121 to 123 °C; to `CC(C)[C@H](S)C(=O)NC1(C(=O)N[C@@H](Cc2ccc(-c3ccc(C(F)(F)F)cc3)cc2)C(=O)O)CCCC1` (stereo in doubt) [2-{[1-(2-Mercapto-3-methylbutanoylamino)-cyclopentanecarbonyl]-amino}-3-(4′-trifluoromethyl-biphenyl-4-yl)-propionic acid], 235 to 236 °C. Molecule `CC(C)[C@H](S)C(=O)NC1(C(=O)N[C@@H](Cc2cccc3c2CCCC3)C(=O)O)CCCC1` (stereo in doubt) [2-{[1-(2-Mercapto-3-methylbutanoylamino)-cyclopentanecarbonyl]-amino}-3-(5,6,7,8-tetrahydro-naphthalen-1-yl)-propionic acid] had a melting point of 158 to 164 °C. `O=C(O)[C@H](Cc1ccc(-c2ccc(C(F)(F)F)cc2)cc1)NC(=O)C1(NC(=O)[C@@H](S)Cc2ccccc2)CCCC1` (stereo in doubt) [2-{[1-(2-Mercapto-3-phenyl-propionylamino)-cyclopentanecarbonyl]-amino}-3-(4′-trifluoromethyl-biphenyl-4-yl)-propionic acid] came in with a melting point of 222 to 225 °C. In turn, `O=C(NC1(C(=O)N[C@@H](Cc2ccc(-c3ccsc3)cc2)C(=O)O)CCCC1)C(S)Cc1ccccc1` (stereo in doubt) [2-{[1-(2-Mercapto-3-phenyl-propionylamino)-cyclopentanecarbonyl]-amino}-3-[4-(thiophen-3-yl)-phenyl]-propionic acid] returned a melting point of 190 to 192 °C. As for `CC(C)C[C@H](S)C(=O)NC1(C(=O)NC(Cc2ccc(-c3cncnc3)cc2)C(=O)O)CCCC1` (stereo in doubt) [2-{[1-(2-Mercapto-4-methyl-pentanoylamino)-cyclopentanecarbonyl]-amino}-3-(4-pyrimidin-5-yl-phenyl)-propionic acid], the melting point lay within 192 to 195 °C. `CSc1ccc(-c2ccc(C[C@H](NC(=O)C3(NC(=O)[C@@H](S)CC(C)C)CCCC3)C(=O)O)cc2)cc1` (stereo in doubt) [2-{[1-(2-mercapto4-methyl-pentanoylamino)-cyclopentanecarbonyl]-amino}-3-(4′-methylthio-biphenyl-4-yl)-propionic acid] registered a melting point of 187 to 189 °C. For the molecule `COc1ccccc1-c1ccc(C[C@H](NC(=O)C2(NC(=O)[C@@H](S)C(C)C)CCCC2)C(=O)O)cc1OC` (stereo in doubt) [3-(2,2′-Dimethoxy-biphenyl-4-yl)-2-{[1-(2-mercapto-3-methyl-butanoylamino)-cyclopentanecarbonyl]-amino}-propionic acid], the melting point lay in the range of 173 to 175 °C. `CC(C)[C@H](S)C(=O)NC1(C(=O)N[C@@H](Cc2ccc(-c3ccccc3F)cc2)C(=O)O)CCCC1` (stereo in doubt) [3-(2′-Fluoro-biphenyl-4-yl)-2-{[1-(2-mercapto-3-methyl-butanoylamino)-cyclopentanecarbonyl]-amino}-propionic acid] returned a melting point of 171 to 173 °C.

Molecule `CC(C)C[C@H](S)C(=O)NC1(C(=O)NC(Cc2ccc(-c3ccccc3O)cc2)C(=O)O)CCCC1` (stereo in doubt) [3-(2′-Hydroxy-biphenyl-4-yl)-2-{[1-(2-mercapto-4-methyl-pentanoylamino)-cyclopentanecarbonyl]-amino}-propionic acid] displayed a melting point of 215 to 217 °C. To `CC(C)C[C@H](S)C(=O)NC1(C(=O)N[C@@H](Cc2ccc(-c3cccc(F)c3)cc2)C(=O)O)CCCC1` (stereo in doubt) [3-(3′-Fluoro-biphenyl-4-yl)-2-{[1-(2-mercapto-4-methyl-pentanoylamino)-cyclopentanecarbonyl]-amino}-propionic acid] belongs 125 to 128 °C. Take `CC(C)C[C@H](S)C(=O)NC1(C(=O)N[C@@H](Cc2ccc(-c3ccno3)cc2)C(=O)O)CCCC1` (stereo in doubt) [3-(4-Isoxazole-5-yl-phenyl)-2-{[1-(2-mercapto4-methyl-pentanoylamino)-cyclopentanecarbonyl]-amino}-propionic acid]: the melting point was 104 to 110 °C. In turn, `CCC[C@H](S)C(=O)NC1(C(=O)N[C@@H](Cc2ccc(-c3ccno3)cc2)C(=O)O)CCCC1` (stereo in doubt) [3-(4-Isoxazole-5-yl-phenyl)-2-{[1-(2-mercapto-pentanoylamino)-cyclopentanecarbonyl]-amino}-propionic acid] registered a melting point of 95 to 108 °C.

In the case of `CC(C)[C@H](S)C(=O)NC1(C(=O)N[C@@H](CC2CCC(C3CCCCC3)CC2)C(=O)O)CCCC1` (stereo in doubt) [3-Bicyclohexyl-4-yl-2-{[1-(2-mercapto-3-methyl-butanoylamino)-cyclopentanecarbonyl]-amino}-propionic acid], the melting point fell in the range of 209 to 210 °C. As for `CC(C)[C@H](S)C(=O)NC1(C(=O)N[C@@H](Cc2cccc(-c3ccccc3)c2)C(=O)O)CCCC1` (stereo in doubt) [3-Biphenyl-3-yl-2-{[1-(2-mercapto-3-methylbutanoylamino)-cyclopentanecarbonyl]-amino}-propionic acid], the melting point fell in the range of 75 to 78 °C.

In the case of `CC(C)[C@H](S)C(=O)NC1(C(=O)N[C@@H](Cc2ccc(-c3ccccc3)cc2)C(=O)O)CCc2ccccc21` (stereo in doubt) [3-Biphenyl-4-yl-2-{[1-(2-mercapto-3-methyl-butyrylamino)-indane-1-carbonyl]-amino}-propionic acid], the melting point fell in the range of 115 to 120 °C. In turn, `O=C(O)[C@H](Cc1ccc(-c2ccccc2)cc1)NC(=O)C1(NC(=O)[C@@H](S)Cc2ccc3ccccc3c2)CCCC1` (stereo in doubt) [3-Biphenyl-4-yl-2-{[1-(2-mercapto-3-naphthalen-2-yl-propionylamino)-cyclopentanecarbonyl]-amino}-propionic acid] yielded a melting point of 166 to 168 °C. As for `CC(C)[C@H](S)C(=O)NC1(C(=O)N[C@@H](Cc2ccc(-c3ccccc3)cc2)C(=O)O)CCOCC1` (stereo in doubt) [3-Biphenyl-4-yl-2-{[4-(2-mercapto-3-methyl-butanoylamino)-tetrahydro-pyran-4-carbonyl]-amino}-propionic acid], the melting point was 161 to 163 °C. Turning to `CC(=O)N1CCCC(c2ccc(C[C@H](NC(=O)C3(NC(=O)[C@@H](S)C(C)C)CCCC3)C(=O)O)cc2)C1` (stereo in doubt) [3-[4-(1-Acetyl-piperidin-3-yl)-phenyl]-2-{[1-(2-mercapto-3-methyl-butanoylamino)-cyclopentanecarbonyl]-amino}-propionic acid], the melting point fell in the range of 190 to 192 °C.

`CC(C)[C@H](S)C(=O)NC1(C(=O)NC(Cc2ccc(-c3csc(CO)c3)cc2)C(=O)O)CCCC1` (stereo in doubt) [3-[4-(5-Hydroxymethyl-thiophen-3-yl)-phenyl]-2-{[1-(2-mercapto-3-methyl-butanoylamino)-cyclopentanecarbonyl]-amino}-propionic acid] had a melting point of 155 to 158 °C. `CC(C)[C@H](S)C(=O)NC1(C(=O)NC(Cc2ccc(-c3ccncc3)cc2)C(=O)O)CCCC1` (some centres unmarked) [2-{[1-(2-Mercapto-3-methyl-butanoylamino)-cyclopentanecarbonyl]-amino}-3-(4-yl-phenyl)-propionic acid] displayed a melting point of 236 to 238 °C.
